Data set [1] has as its system Nissl+ cells. Nature of the data set: Nissl staining neuron counts in TgA53T mice. The class given is in vivo, mouse. As to conditions: 40 mg/Kg I.P. daily for 7 days, vs DMSO. On the procedure: BK50118-C is one of novel small molecule inhibitors of USP13 synthesized in our laboratory. For BK50118-C treatment, approximately 15 months old (±1 month) male and female TgA53T mice were treated with intraperitoneal injection of vehicle (DMSO) or BK50118-C at the daily dosage of 10 mg/Kg or 40 mg/Kg for 7 days. Animals were age and sex-matched in their respective treatment cohorts. All animals were sacrificed after treatment. All experiments were conducted in full compliance with the recommendations of Georgetown University Animal Care and Use Committee. These experiments were conducted under animal protocol No. 2016-1194 titled, Misfolded Protein Clearance in Neurodegeneration, which was approved by the Georgetown University IACUC. Protocol Information: IACUC Protocol Number: 2016-1194. Protocol Approval Date: 14 September 2020 Expiration Date: 14 September 2023.
Nissl staining was performed using FD Cresyl Violet Solution™ Regular Strength (FD NeuroTechnologies, Cat PS102-01, Columbia, MD, USA) as per manufacturer’s instructions. Silver staining was performed using FD NeuroSilver™ (FD NeuroTechnologies, Cat PK301,) as per manufacturer’s instructions.
Suppl Figure S3. BK50118-C improved cell survivals in TgA53T mice. Male and female TgA53T mice were treated with intraperitoneal injection of vehicle or BK50118-C at the daily dosage of 40 mg/Kg for 7 days. […]
substantia nigra (SN) H) compared to corresponding vehicles A), D) and G), verified […]
(1 picture or pasted object on this page, not shown here) […]
by quantification of Nissl+ cells in cortex C), striatum F) and SN I). Asterisk indicates statistic significant difference vs vehicle. * p<0.05 vs vehicle. Two-tailed student’s t test was used for analysis. N=3-4 mice per group. All values presented as Mean±SD.

For data set [2], the system named is tyrosine hydroxylase (TH). Nature of the data set: Tyrosine hydroxylase staining in striatum of TgA53T mice. Conditions: 40 mg/Kg I.P. daily for 7 days, vs DMSO. It is filed as in vivo, mouse. From the text: To ascertain the mechanistic effects of BK50118-C on alpha-synuclein clearance, we performed immunostaining in striatum of TgA53T mice. […] We also performed the staining of tyrosine hydroxylase (TH) in the striatum of TgA53T mice. TH is the enzyme responsible for catalyzing the rate limiting step in synthesis of L-3,4-dihydroxyphenylalanine(L-DOPA) which is a precursor for dopamine (DA). Staining of TH will help to evaluate the status of DA producing neurons in the SN and their terminals in the striatum.
BK50118-C is one of novel small molecule inhibitors of USP13 synthesized in our laboratory. For BK50118-C treatment, approximately 15 months old (±1 month) male and female TgA53T mice were treated with intraperitoneal injection of vehicle (DMSO) or BK50118-C at the daily dosage of 10 mg/Kg or 40 mg/Kg for 7 days. Animals were age and sex-matched in their respective treatment cohorts. All animals were sacrificed after treatment. […]
Immunohistochemistry was performed on the 20 µm thick brain sections for evaluation of ubiquitination of alpha-synuclein. […] The optic densitometry of co-localization of ubiquitin with alpha-synuclein was measured using Image J. Tyrosine hydroxylase (TH) is the limiting enzyme in DA synthesis, so probing for TH+ neurons will help to evaluate the status of DA producing neurons in the SN and their terminals in the striatum. […]

The test system of data set [3] is SH-SY5Y human neuroblastoma cells. Nature of the data set: LDH and MTT cell viability assays. It is filed as cell-based. Conditions: 5 h, compared to DMSO or untreated controls. On the procedure:
BK50118-B and BK50118-C (Figure 2C,D) decreased cell viability near and above 100 μM compared to DMSO or untreated controls. CL3-499 (Figure 2G) decreased cell viability near and above 1 mM compared to DMSO or untreated controls.
SH-SY5Y cells were transiently transfected for 24 h with human wild-type α-synuclein using Fugene HD transfection reagent (Promega, E2311, Madison, WI, USA) according to manufacturer’s protocol. Cells were treated with 1 mM, 0.1 mM, 0.01 mM, 1 µM, 0.1 µM, 0.01 µM and 0.001 µM of each novel compounds (BK50118-A, BK50118-B, BK50118-C, CL3-499, CL3-512 and CL3-514) dissolved in DMSO for 5 h. Cells were then harvested on ice by removing culture medium and adding 0.2 mL 1x sodium-tris, EDTA, NP-40 (STEN) buffer (50 mM Tris (pH 7.6), 150 mM NaCl, 2 mM EDTA, 0.2 % NP-40, 0.2 % with Halt protease and phosphatase inhibitor solution (ThermoFisher, 78446). Cells were detached with a cell scraper and collected into centrifuge tubes and incubated at 4 °C for 30 min with agitation. Samples were stored at −80 °C and used for ELISA analyses. For cell viability assay, SHSY-5Y cells stably expressing human wild-type alpha-synuclein were treated with 1 mM, 0.1 mM, 0.01 mM, 1 µM, 0.1 µM, 0.01 µM and 0.001 µM of each novel compound (BK50118-A, BK50118-B, BK50118-C, CL3-499, CL3-512 and CL3-514) dissolved in DMSO for 5 h. Cell viability was determined via lactate dehydrogenase assay on culture media (Thermofisher, 88954) and MTT assay on plated cells (Thermofisher, V13154).

Regarding `Fc1ccc2nccc(OCc3ccccc3)c2c1` [BK50118-C, 4-benzyloxy-6-fluoroquinoline], the “neuron counts (Nissl+ cells)” value in data set [1] (cortex), in data set [1] (striatum) and in data set [1] (substantia nigra (SN)) was “significantly increased” throughout. Also, the “tyrosine hydroxylase (TH) staining” value in data set [2] is given as “did not show any noticeable effects”. In addition, in data set [3], the “concentration near and above which cell viability decreased” value was at least 100 µM.

These data come from publication PMC8467576, “Novel Ubiquitin Specific Protease-13 Inhibitors Alleviate Neurodegenerative Pathology” (Metabolites, 2021).
